# Experimental data published in US20260200946A1, “KRAS(G12V) INHIBITORS” (Ranok Therapeutics (Hangzhou) Co. Ltd., priority 2022, published 2026).
# Tested on: NCIH727 cells
# Experiment: Cancer cell line proliferation (CellTiter-Glo), NCI-H727
# Type: cell-based
# Details: Homo sapiens, 72 h, NCIH727 lung carcinoid, heterozygous G12V
# Method: Cell lines were cultured essentially according to ATCC recommendations.
# SW620 and NCIH727 cells were plated in 384-well tissue culture plates at 1,000 cells/well and incubated at 37° C./5% CO2 for 72 hr in 40 μl of media. […] Each cell line was then treated with test compounds at various concentrations with a final concentration of 0.5% DMSO/well, and then incubated at 37° C./5% CO2 for 72 hr. 40 μl of CellTiter-Glo® Reagent (Promega Corporation, Madison, WI) was added to each well and processed according manufacturer's protocol. Results were analyzed and IC50 values were calculated in GraphPad 8.0 software.
row,SMILES,EC50 [µM]
1,C#Cc1c(F)ccc2cc(O)cc(-c3nc(OC)c4c(N5CC6CCC(C5)N6C(=O)NC5CC5(F)F)nc(OCC5(CN6CCC(F)CC6)CC5)nc4c3F)c12 (centres unmarked) [Example 86],0.1 to 1
2,C#Cc1c(F)ccc2cc(O)cc(-c3nc(OC)c4c(N5CC6CCC(C5)N6C(=O)NC5CC[C@@H](F)C5)nc(OCC5(CN6CCC(F)CC6)CC5)nc4c3F)c12 (some centres unmarked) [Example 87],0.1 to 1
3,C#CCNC(=O)N1C2CCC1CN(c1nc(OCC3(CN4CCC(F)CC4)CC3)nc3c(F)c(-c4cc(O)cc5ccc(F)c(C#C)c45)nc(OC)c13)C2 [Example 88],< 0.1
4,C#Cc1c(F)ccc2cc(O)cc(-c3nc(OC)c4c(N5CC6CCC(C5)N6C(=O)NC5CCC5)nc(OCC5(CN6CCC(F)CC6)CC5)nc4c3F)c12 [Example 89],< 0.1
5,C#Cc1c(F)ccc2cc(O)cc(-c3nc(OC)c4c(N5CC6CCC(C5)N6C(=O)Nc5cc(F)cc(F)c5)nc(OCC5(CN6CCC(F)CC6)CC5)nc4c3F)c12 [Example 90],0.1 to 1
6,C#Cc1c(F)ccc2cc(O)cc(-c3nc(OC)c4c(N5CC6CCC(C5)N6C(=O)NC5CC(F)C5)nc(OCC5(CN6CCC(F)CC6)CC5)nc4c3F)c12 (centres unmarked) [Example 91],< 0.1
7,C#Cc1c(F)ccc2cc(O)cc(-c3nc(OC)c4c(N5CC6CCC(C5)N6C(=O)NC(C)C#N)nc(OCC5(CN6CCC(=C)CC6)CC5)nc4c3F)c12 (centres unmarked) [Example 93],< 0.1
8,C#Cc1c(F)ccc2cc(O)cc(-c3nc(C#C)c4c(N5CC6CCC(C5)N6C(=O)C5CC5(F)F)nc(OCC5(CN6CCC(F)CC6)CC5)nc4c3F)c12 (centres unmarked) [Example 94],0.1 to 1
9,C#Cc1c(F)ccc2cc(O)cc(-c3nc(C#C)c4c(N5CC6CCC(C5)N6C(=O)NC5CC5)nc(OCC5(CN6CCC(F)CC6)CC5)nc4c3F)c12 [Example 95],0.1 to 1
10,C#CCNC(=O)N1C2CCC1CN(c1nc(OCC3(CN4CCC(F)CC4)CC3)nc3c(F)c(-c4cc(O)cc5ccc(F)c(C#C)c45)nc(C#C)c13)C2 [Example 96],0.1 to 1
11,C#Cc1c(F)ccc2cc(O)cc(-c3nc(OC)c4c(N5CC6CCC(C5)N6C(=O)Nc5ccc6c(c5)CCO6)nc(OCC5(CN6CCC(F)CC6)CC5)nc4c3F)c12 [Example 97],0.1 to 1
12,C#Cc1c(F)ccc2cc(O)cc(-c3nc(C#C)c4c(N5CC6CCC(C5)N6C(=O)NCC(F)(F)F)nc(OCC5(CN6CCC(F)CC6)CC5)nc4c3F)c12 [Example 100],0.1 to 1
13,C#Cc1c(F)ccc2cc(O)cc(-c3nc(OC)c4c(N5CC6CCC(C5)N6C(=O)[C@H]5CC5(F)F)nc(OCC5(CN6CC7CC7C6)CC5)nc4c3F)c12 (some centres unmarked) [Example 102],< 0.1
14,C#Cc1c(F)ccc2cc(O)cc(-c3nc(C#C)c4c(N5CC6CCC(C5)N6C(=O)CCC#N)nc(OCC5(CN6CCC(F)CC6)CC5)nc4c3F)c12 [Example 103],0.1 to 1
15,C#Cc1c(F)ccc2cc(O)cc(-c3nc(OC)c4c(N5CC6CCC(C5)N6C(=O)COC)nc(OCC5(CN6CC7CC7C6)CC5)nc4c3F)c12 (centres unmarked) [Example 106],0.1 to 1
16,C#Cc1c(F)ccc2cc(O)cc(-c3nc(OC)c4c(N5CC6CCC(C5)N6C(=O)CCN(C)C)nc(OCC5(CN6CC7CC7C6)CC5)nc4c3F)c12 (centres unmarked) [Example 107],> 1
17,C#Cc1c(F)ccc2cc(O)cc(-c3nc(OC)c4c(N5CC6CCC(C5)N6C(=O)CCOC)nc(OCC5(CN6CC7CC7C6)CC5)nc4c3F)c12 (centres unmarked) [Example 108],0.1 to 1
18,C#Cc1c(F)ccc2cc(O)cc(-c3nc(OC)c4c(N5CC6CCC(C5)N6C(=O)N(C)CC#N)nc(OCC5(CN6CC7CC7C6)CC5)nc4c3F)c12 (centres unmarked) [Example 110],> 1
19,C#Cc1c(F)ccc2cc(O)cc(-c3nc(OC)c4c(N5CC6CCC(C5)N6C(=O)OC(C)(C)C#N)nc(OCC5(CN6CC7CC7C6)CC5)nc4c3F)c12 (centres unmarked) [Example 111],< 0.1

row,SMILES,EC50 [µM]
1,C#Cc1c(F)ccc2cc(O)cc(-c3nc(OC)c4c(N5CC6CCC(C5)N6C(=O)C(C#N)C(C)(C)C)nc(OCC5(CN6CC7CC7C6)CC5)nc4c3F)c12 (centres unmarked) [Example 112],> 1
2,C#Cc1c(F)ccc2cc(O)cc(-c3nc(OC)c4c(N5CC6CCC(C5)N6C(=O)CCCC#N)nc(OCC5(CN6CC7CC7C6)CC5)nc4c3F)c12 (centres unmarked) [Example 113],0.1 to 1
3,C#Cc1c(F)ccc2cc(O)cc(-c3nc(OC)c4c(N5CC6CCC(C5)N6C(=O)C5(C)CC5)nc(OCC5(CN6CC7CC7C6)CC5)nc4c3F)c12 (centres unmarked) [Example 114],> 1
4,C#Cc1c(F)ccc2cc(O)cc(-c3nc(OC)c4c(N5CC6CCC(C5)N6C(=O)C5(C#N)CC5)nc(OCC5(CN6CC7CC7C6)CC5)nc4c3F)c12 (centres unmarked) [Example 115],0.1 to 1
5,C#Cc1c(F)ccc2cc(O)cc(-c3nc(OC)c4c(N5CC6CCC(C5)N6C(=O)C5(C(F)(F)F)CC5)nc(OCC5(CN6CC7CC7C6)CC5)nc4c3F)c12 (centres unmarked) [Example 116],> 1
6,C#Cc1c(F)ccc2cc(O)cc(-c3nc(OC)c4c(N5CCN(C(=O)CC#N)[C@@H](CC#N)C5)nc(OCC5(CN6CC7CC7C6)CC5)nc4c3F)c12 (some centres unmarked) [Example 117],> 1
7,C#Cc1c(F)ccc2cc(O)cc(-c3nc(OC)c4c(N5CC6CCC(C5)N6C(C)=O)nc(OCC5(CN6CC7CC7C6)CC5)nc4c3F)c12 (centres unmarked) [Example 120],0.1 to 1
8,C#Cc1c(F)ccc2cc(O)cc(-c3nc(OC)c4c(N5CC6CCC(C5)N6C(C)C)nc(OCC5(CN6CC7CC7C6)CC5)nc4c3F)c12 (centres unmarked) [Example 121],> 1
9,C#Cc1c(F)ccc2cc(O)cc(-c3nc(OC)c4c(N5CC6CCC(C5)N6C(=O)CC(C)=O)nc(OCC5(CN6CC7CC7C6)CC5)nc4c3F)c12 (centres unmarked) [Example 122],0.1 to 1
10,C#Cc1c(F)ccc2cc(O)cc(-c3nc(OC)c4c(N5CC6CCC(C5)N6C(=O)C(C)C#N)nc(OCC5(CN6CC7CC7C6)CC5)nc4c3F)c12 (centres unmarked) [Example 123],0.1 to 1
11,C#Cc1c(F)ccc2cc(O)cc(-c3nc(OC)c4c(N5CC6CCC(C5)N6C(=O)C(C)=O)nc(OCC5(CN6CC7CC7C6)CC5)nc4c3F)c12 (centres unmarked) [Example 124],0.1 to 1
12,[2H]C([2H])([2H])Oc1nc(-c2cc(O)cc3ccc(F)c(C#C)c23)c(F)c2nc(OCC3(CN4CC5CC5C4)CC3)nc(N3CC4CCC(C3)N4C(=O)C(C#N)CC(F)(F)F)c12 (centres unmarked) [Example 125],0.1 to 1
13,C#Cc1c(F)ccc2cc(O)cc(-c3nc(OC)c4c(N5CC6CCC(C5)N6C(=O)C(C#N)CC)nc(OCC5(CN6CC7CC7C6)CC5)nc4c3F)c12 (centres unmarked) [Example 126],0.1 to 1
14,O=CO.[2H]C([2H])([2H])Oc1nc(-c2cc(O)cc3ccc(F)c(C#C)c23)c(F)c2nc(OCC3(CN4CC5CC5C4)CC3)nc(N3CC4CCC(C3)N4C(=O)C(C#N)CC#N)c12 (centres unmarked) [Example 127],0.1 to 1
15,C#Cc1c(F)ccc2cc(O)cc(-c3nc(OC)c4c(N5CC6CCC(C5)N6C(=O)CC[N+](=O)[O-])nc(OCC5(CN6CC7CC7C6)CC5)nc4c3F)c12 (centres unmarked) [Example 128],0.1 to 1
16,C#Cc1c(F)ccc2cc(O)cc(-c3nc(OC)c4c(N5CC6CCC(C5)N6C(=O)N5CC(C#N)C5)nc(OCC5(CN6CC7CC7C6)CC5)nc4c3F)c12 (centres unmarked) [Example 130],< 0.1
17,C#Cc1c(F)ccc2cc(O)cc(-c3nc(OC)c4c(N5CC6CCC(C5)N6C(=O)C(CC#N)CC#N)nc(OCC5(CN6CC7CC7C6)CC5)nc4c3F)c12 (centres unmarked) [Example 131],0.1 to 1
18,C#Cc1c(F)ccc2cc(O)cc(-c3nc(OC)c4c(N5CC6CCC(C5)N6C(=O)CCC=O)nc(OCC5(CN6CC7CC7C6)CC5)nc4c3F)c12 (centres unmarked) [Example 132],0.1 to 1

# Same assay, conditions: NCIH727 lung carcinoid, heterozygous G12V, 72 hr
row,SMILES,EC50 [µM]
1,C#Cc1c(F)ccc2cc(O)cc(-c3nc(OC)c4c(N5CC6CCC(C5)N6C(=O)NC5CC(F)C5)nc(OCC5(CN6CCC(F)CC6)CC5)nc4c3F)c12 (centres unmarked) [Example 92],0.1 to 1
